Common to all, as to type: cell-based
For assay [1], the system named is Carbapenem-resistant Acinetobacter A515 strain. Put plainly: MIC of test compound combined with a plurality of β-lactamase inhibitors. The conditions noted are these: for antibacterial activity in combination with two β-lactamase inhibitors: against all the bacterial strains (Acinetobacter A514 and A515), with SBT and AVI. As for the experimental part:
(§1) By using a broth microdilution method, the combinational effect of a test compound and a plurality of β-lactamase inhibitors was evaluated.
(§2) The evaluation test for antibacterial activity was performed in the same manner as in Test Example 1.
(§3) As bacterial strains, Carbapenem-resistant Acinetobacter A514 and A515 strains were used.

Assay [2] concerns Carbapenem-resistant Acinetobacter A514 strain. Described as above. The procedure: as §1, §2, §3
For assay [3], the system named is Escherichia coli TK-3113 strain producing IMP-8 (strain D). Put plainly: MIC of test compound alone or with β-lactamase inhibitor at 4 μg/mL. The procedure: (§4) By using a broth microdilution method, the combinational effect of a test compound and a β-lactamase inhibitor was evaluated.
as §2
Escherichia coli TK-3113 strain producing IMP-8 (hereinafter, called strain D),
(§5) An antibacterial activity evaluation test was performed in the same manner as in Test Example 6.
(§6) As the bacterial strain, the strains B, C, and D producing β-lactamase and a Klebsiella pneumoniae Y-1069 strain (hereinafter, called strain F) producing OXA-48 and CTX-M-15 were used.

Assay [4] concerns Klebsiella pneumoniae ATCC13883 strain (Klebsiella pneumoniae A). Put plainly: Combinational effect of test compound and antibacterial compound, checkerboard FIC index. As for the experimental part:
(§7) By using a broth microdilution method, the combinational effect of antibacterial activity of a test compound and an antibacterial compound was evaluated.
(§8) As bacterial strains, an Escherichia coli ATCC25922 strain (hereinafter, called Escherichia coli A), a Klebsiella pneumoniae ATCC13883 strain (hereinafter, called Klebsiella pneumoniae A), and a Pseudomonas aeruginosa ATCC27853 strain (hereinafter, called Pseudomonas aeruginosa A) were used.
(§9) The minimum inhibitory concentration (hereinafter, called MIC) was measured according to the Clinical and Laboratory Standards Institute (CLSI) standard method by using the following broth microdilution method.
(§10) The bacterial cells that had been cultured overnight on a Mueller Hinton agar medium were scraped off, suspended at a density equivalent to 0.5 McFarland standard. The obtained suspension was diluted at 10 fold, thereby obtaining an inoculum. Cation-adjusted Mueller Hinton media containing only a test compound, containing only an antibacterial compound, or containing a test compound and an antibacterial compound were inoculated with 0.005 mL of the inoculum, and the cells were cultured at 35° C. for 18 to 20 hours. The minimum drug concentration at which the growth of bacteria was not visually observed was defined as MIC (μg/mL).
(§11) The FIC Index is the minimum value calculated by the following formula.
(§12) FIC Index=(MIC value obtained in a case where test compound is used in combination/MIC value obtained in a case where test compound is used alone)+(MIC value obtained in a case where antibacterial compound is used in combination/MIC value obtained in a case where antibacterial compound is used alone)
(§13) In a case where the FIC Index was 0.5 or less, it was decided that the use of two drugs in combination brings about a synergistic effect.
(§14) In a case where the FIC Index was more than 0.5 and 1 or less, it was decided that the use of two drugs in combination brings about an additive effect. (Diagnostic Microbiology and Infectious Disease, 2004, Vol. 49, p. 197)

Assay [5] concerns Pseudomonas aeruginosa ATCC27853 strain (Pseudomonas aeruginosa A). Described as above. The conditions noted are these: for FIC index: Pseudomonas aeruginosa A, checkerboard; for combinational effect with other antibacterial compounds: main strains of Gram-negative bacteria, summary of Tables 40 to 42. The procedure:
as §7, §8, §9, §10, §11, §12, §13, §14

The subject of assay [6] is Escherichia coli ATCC25922 strain (Escherichia coli A). The description is as above. As for the experimental part: as §7, §8, §9, §10, §11, §12, §13, §14
Assay [7] deals with Klebsiella pneumoniae Y-1133 strain producing NDM-1, OXA-48, and CTX-M-15 (strain C). Put plainly: MIC of test compound alone or with β-lactamase inhibitor at 4 μg/mL. As for the experimental part:
as §4, §2
Klebsiella pneumoniae Y-1133 strain producing NDM-1, OXA-48, and CTX-M-15 (hereinafter, called strain C),
as §5, §6

Assay [8] has as its system Escherichia coli TK-1747 strain producing CTX-M-15 (strain A). The assay is described as above. The procedure:
as §4, §2
Escherichia coli TK-1747 strain producing CTX-M-15 (hereinafter, called strain A),

Assay [9] deals with Klebsiella pneumoniae Y-1020 strain producing KPC-3 and SHV-12 (strain B). The assay is described as above. The conditions noted are these: for MIC: Strain B; for antibacterial activity in combination with a β-lactamase inhibitor versus without: for all the bacterial strains (strains A to E), summary of Tables 43 to 47. As for the experimental part: as §4, §2
Assay [10] deals with Escherichia coli TK-1765 strain producing CMY-2 (strain E). The description is as above. As for the experimental part: as §4, §2
Escherichia coli TK-1765 strain producing CMY-2 (hereinafter, called strain E)

Where [11] appears, read: Table 49, against the Carbapenem-resistant Acinetobacter A515 strain, read-out: MIC.
[12] abbreviates: Table 48, against the Carbapenem-resistant Acinetobacter A514 and A515 strains (so in the source), read-out: MIC.
The mark [13] stands for this setting: test compound alone (β-lactamase inhibitor N/A).

The MIC is the smallest concentration in the dilution series that meets the test's criterion for growth inhibition.

Where two headings read alike, the source gives them in different places.

Regarding `NC(=O)[C@@H]1CC[C@@H]2CN1C(=O)N2OS(=O)(=O)O` [AVI, avibactam sodium], the minimum inhibitory concentration (MIC) in [1] (setting [11]) and in assay [2] (setting [12]) was > 32 µg/mL throughout.
Take `CC1(C)[C@H](C(=O)O)N2C(=O)C[C@H]2S1(=O)=O` [SBT, sulbactam sodium]: the MIC in assay [1] (Acinetobacter) and in assay [2] (Acinetobacter) was > 32 µg/mL in each case.
For the compound `CC(C)(O/N=C(\C(=O)N[C@@H]1C(=O)N2C[C@@](C(=O)O)(N3CCN(NC(=O)C(=O)c4ccc(O)c(O)c4Cl)C3=O)S[C@H]12)c1csc(N)n1)C(=O)O` [Compound A], the minimal inhibitory concentration (MIC) in assay [3] (NAC added at 4 μg/mL) is 0.06 µg/mL; in [3] (ZID added at 4 μg/mL) it was <0.015 µg/mL; in assay [3] (setting [13]), 0.5 µg/mL; in [7] (AVI added at 4 μg/mL), 0.12 µg/mL; in assay [7] (NAC added at 4 μg/mL), 0.03 µg/mL; in assay [7] (ZID added at 4 μg/mL) it was <0.015 µg/mL. The MIC is 0.5 µg/mL in [7] (setting [13]); <0.015 µg/mL in assay [8] (AVI added at 4 μg/mL); <0.015 µg/mL in assay [8] (CVA added at 4 μg/mL); <0.015 µg/mL in assay [8] (NAC added at 4 μg/mL); <0.015 µg/mL in assay [8] (SBT added at 4 μg/mL); <0.015 µg/mL in assay [8] (TAZ added at 4 μg/mL). In addition, the MIC in [8] (VAB added at 4 μg/mL) is 0.06 µg/mL; in [8] (ZID added at 4 μg/mL), <0.015 µg/mL; in assay [8] (setting [13]), 0.12 µg/mL; in assay [9] (AVI added at 4 μg/mL) it was 0.25 µg/mL; in assay [9] (NAC added at 4 μg/mL), <0.015 µg/mL; in assay [9] (VAB added at 4 μg/mL), 1 µg/mL. For the same compound, the minimal inhibitory concentration (MIC) in assay [9] (ZID added at 4 μg/mL) was <0.015 µg/mL; in assay [9] (setting [13]), 2 µg/mL; in assay [10] (setting [13]), 1 µg/mL; in assay [10] (with AVI at 4 μg/mL), 0.06 µg/mL; in [10] (with SBT at 4 μg/mL), 0.5 µg/mL; in assay [10] (with TAZ at 4 μg/mL) it was 0.25 µg/mL. The minimum inhibitory concentration (MIC) in [10] (with VAB at 4 μg/mL) stood at 0.12 µg/mL. The FIC index in [4] (in combination with CAZ) was 0.625; in [4] (in combination with IPM), 0.375; in assay [4] (in combination with LVFX), 0.75; in assay [4] (in combination with MPC) it was <0.5; in assay [4] (in combination with PIPC), 0.375; in assay [4] (in combination with PL-B) it was 0.125. Also, the FIC index in [4] (in combination with RFP) turned out to be 0.502; in assay [4] (in combination with TMP) it was 0.375; in assay [5] (in combination with AMK), 0.5; in [5] (in combination with CAZ) it was 0.5625; in assay [5] (in combination with IPM), 0.252; in assay [5] (in combination with LVFX) it was 0.5625. The FIC index was determined as 0.5 in assay [5] (in combination with PIPC); 0.625 in assay [5] (in combination with PL-B); 0.281 in [5] (in combination with RFP); 0.375 in assay [5] (in combination with TC); 0.5625 in [6] (in combination with AMK); 0.625 in [6] (in combination with CAZ). The FIC index in assay [6] (in combination with IPM) is recorded as 0.5156; in assay [6] (in combination with LVFX), 0.75; in [6] (in combination with MPC), 0.5078; in assay [6] (in combination with PIPC), 0.5625; in [6] (in combination with RFP), 0.625; in assay [6] (in combination with TC), 0.75. The FIC index in assay [6] (in combination with TMP) is reported as 0.625. Besides, in assay [5], the “combinational effect with other antibacterial compounds” value is recorded as “additive or synergistic effect”. In addition, the “antibacterial activity in combination with two β-lactamase inhibitors” value in assay [1] is on record as “High antibacterial activity”. Also, in assay [9], the “antibacterial activity in combination with a β-lactamase inhibitor versus without” value is reported as “higher antibacterial activity”.
On to `C[C@@H](O)[C@H]1C(=O)N2C(C(=O)O)=C(S[C@@H]3CN[C@H](C(=O)N(C)C)C3)[C@H](C)[C@H]12` [MEPM, meropenem hydrate, reference compound], for which the minimal inhibitory concentration (MIC) in assay [1] (setting [11]) was > 32 µg/mL; in [2] (setting [12]), > 32 µg/mL; in [7] (Klebsiella pneumoniae, test compound alone (β-lactamase inhibitor N/A)), > 128 µg/mL; in assay [9] (Klebsiella pneumoniae, test compound alone (β-lactamase inhibitor N/A), read-out: MIC), 32 µg/mL.
As for `Nc1nc(/C(=N/OC2(C(=O)O)CCC2)C(=O)N[C@@H]2C(=O)N3C[C@@](C(=O)O)(N4CCN(NC(=O)C(=O)c5ccc(O)c(O)c5Cl)C4=O)S[C@H]23)cs1` [Compound B], the minimum inhibitory concentration (MIC) was 0.25 µg/mL in assay [3] (AVI added at 4 μg/mL); <0.015 µg/mL in assay [3] (NAC added at 4 μg/mL); <0.015 µg/mL in assay [3] (ZID added at 4 μg/mL); 0.5 µg/mL in assay [3] (setting [13]); 0.12 µg/mL in assay [7] (AVI added at 4 μg/mL); <0.015 µg/mL in assay [7] (NAC added at 4 μg/mL). Also, the minimum inhibitory concentration (MIC) in assay [7] (ZID added at 4 μg/mL) is <0.015 µg/mL; in assay [7] (setting [13]), 1 µg/mL; in assay [9] (AVI added at 4 μg/mL) it was 0.25 µg/mL; in assay [9] (NAC added at 4 μg/mL), <0.015 µg/mL; in assay [9] (VAB added at 4 μg/mL), <0.015 µg/mL; in assay [9] (ZID added at 4 μg/mL) it was <0.015 µg/mL. In addition, the minimal inhibitory concentration (MIC) in assay [9] (setting [13]) came out at 2 µg/mL; in [10] (setting [13]) it was 1 µg/mL; in [10] (with AVI at 4 μg/mL) it was 0.03 µg/mL; in [10] (with SBT at 4 μg/mL), 0.5 µg/mL; in [10] (with TAZ at 4 μg/mL), 0.12 µg/mL; in [10] (with VAB at 4 μg/mL), 0.03 µg/mL. Further, the FIC index is 0.75 in [4] (in combination with AMK); 0.625 in [4] (in combination with CAZ); 0.375 in assay [4] (in combination with IPM); 0.563 in assay [4] (in combination with LVFX); <0.375 in assay [4] (in combination with MPC); <0.5 in assay [4] (in combination with PIPC). In addition, the FIC index in assay [4] (in combination with PL-B) was 0.156; in assay [4] (in combination with RFP), 0.281; in assay [4] (in combination with TMP), 0.375; in assay [5] (in combination with AMK), 0.375; in assay [5] (in combination with CAZ) it was 0.563; in assay [5] (in combination with IPM), 0.5. Moreover, the FIC index in assay [5] (in combination with LVFX) was 0.625; in assay [5] (in combination with PIPC), 0.375; in [5] (in combination with PL-B), 0.531; in [5] (in combination with RFP) it was 0.313; in [5] (in combination with TMP), 0.502; in assay [6] (in combination with CAZ) it was 0.625. For the same compound, the FIC index is 0.508 in assay [6] (in combination with MPC), 0.53 in assay [6] (in combination with PIPC), 0.531 in assay [6] (in combination with RFP) and 0.531 in assay [6] (in combination with TMP). Also, in [5], the “combinational effect with other antibacterial compounds” value is recorded as “additive or synergistic effect”. For the same compound, the “antibacterial activity in combination with two β-lactamase inhibitors” value in [1] was “High antibacterial activity”. The “antibacterial activity in combination with a β-lactamase inhibitor versus without” value in assay [9] was “higher antibacterial activity”.

The values above are taken from patent US20220241249A1, “PHARMACEUTICAL COMPOSITION AND KIT CONTAINING NOVEL PENAM DERIVATIVE OR SALT THEREOF AND ONE OR MORE COMPOUNDS SELECTED FROM beta-LACTAMASE INHIBITORY COMPOUND AND ANTIBACTERIAL COMPOUND OR SALTS THEREOF” (priority 2019, published 2022).
